According to patent US8206920B2, “Diagnostic assay for the specific treatment of acute myeloid leukemia” (priority 2007, dated 2012):

Experiments:
ND13 MN1 cells = assay: Proliferation of cell cultures of transduced ND13 cells expressing MN1 with ATRA (FIG. 3); type: cell-based, mouse; conditions: 0.1 μM or 1 μM ATRA, up to 96 h
Text: (§1) The expression vector encoding GFP contained to the GFP gene under control of the spleen focus-forming virus promoter, integrated into the vector pSF91 (described in detail in Hildinger et al., J. Virol. 73, 4083-4089 (1999)). The MN1 expression vector contained the human MN1 gene under the control of the same promoter in the same vector backbone.

ND13 GFP cells = assay: Proliferation of cell cultures of transduced ND13 cells expressing GFP with ATRA (FIG. 3); type: cell-based, mouse; conditions: 0.1 μM or 1 μM ATRA, p=0.026 at 24 hours, p<0.001 at 48, 72 and 96 h
Text: as §1

CC1=C(/C=C/C(C)=C/C=C/C(C)=C/C(=O)O)C(C)(C)CCC1 [ATRA, all-trans retinoic acid]
proliferation (cell numbers) (ND13 MN1 cells): no significant reduction of proliferation
proliferation (cell numbers) (ND13 GFP cells): significant reduction of proliferation
